Values after ≈ are worked out from the molar mass of the structure shown.
Key:
[1] = target: Voltage-gated inwardly rectifying potassium channel KCNH2 (Homo sapiens, UniProt Q12809); assay: Inhibition of human ERG
[2] = tested on: Brain; assay: Drug uptake in rat brain at 3 mg/kg, iv; type: ADME, organism-based; design: dose 3 mg/kg, route intravenous; conditions: in vivo
[3] = target: Cytochrome P450 2C19 (Homo sapiens, UniProt P33261); assay: Inhibition of CYP2C19; type: ADME
[4] = Oral bioavailability in rat at 4 mg/kg; type: ADME, organism-based; conditions: in vivo
[5] = tested on: Rattus norvegicus; assay: Inhibition of FAAH in iv dosed rat assessed as AEA level in brain administered 30 mins prior to anandamide loading measured after 30 mins; type: functional, organism-based
[6] = Drug metabolism in human liver microsomes after 10 mins; type: ADME, Microsome; conditions: read-out: Drug metabolism
[7] = tested on: Plasma; assay: Ratio of plasma concentration in rat hepatic portal vein to plasma concentration in rat vena cava at 4 mg/kg, po; type: ADME, organism-based; design: dose 4 mg/kg, route oral; conditions: in vivo
[8] = target: Cytochrome P450 3A4 (Homo sapiens, UniProt P08684); assay: Inhibition of CYP3A4; type: ADME
[9] = Drug metabolism in rat liver microsomes after 10 mins; type: ADME, Microsome; conditions: read-out: Drug metabolism
[10] = target: T1, Monoglyceride lipase (Homo sapiens, UniProt Q99685); assay: Inhibition of human recombinant N-His6-tagged MAGL expressed in Escherichia coli using 7-Hydroxycoumarinyl arachidonate as substrate by fluorimetry
T1 sequence (Q99685 whole entry): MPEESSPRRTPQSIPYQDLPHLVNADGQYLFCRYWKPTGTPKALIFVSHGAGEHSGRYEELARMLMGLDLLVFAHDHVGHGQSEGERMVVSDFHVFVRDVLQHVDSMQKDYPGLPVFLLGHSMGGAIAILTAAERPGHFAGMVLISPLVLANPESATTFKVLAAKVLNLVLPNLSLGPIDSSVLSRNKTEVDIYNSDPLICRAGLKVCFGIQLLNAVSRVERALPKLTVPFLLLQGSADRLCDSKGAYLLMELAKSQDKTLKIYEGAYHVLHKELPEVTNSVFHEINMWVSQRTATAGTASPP

[11] = tested on: Brain; assay: Drug uptake in rat brain at 1 mg/kg, iv; type: ADME, organism-based; design: dose 1 mg/kg, route intravenous; conditions: in vivo
[12] = tested on: Brain; assay: Drug uptake in rat brain at 0.3 mg/kg, iv; type: ADME, organism-based; design: dose 0.3 mg/kg, route intravenous; conditions: in vivo
[13] = tested on: Plasma; assay: Plasma concentration in rat at 1 mg/kg, iv; type: ADME, organism-based; design: dose 1 mg/kg, route intravenous; conditions: in vivo
[14] = Apparent permeability from basolateral to apical side of human Caco2 cells; type: ADME, cell-based; conditions: Caco-2
[15] = tested on: Plasma; assay: Plasma concentration in rat at 0.3 mg/kg, iv; type: ADME, organism-based; design: dose 0.3 mg/kg, route intravenous; conditions: in vivo
[16] = tested on: Rattus norvegicus; assay: Inhibition of FAAH in rat assessed as AEA level in brain at 1 mg/kg, iv administered 30 mins prior to anandamide loading measured after 30 mins relative to vehicle treated control; type: functional
[17] = Volume of distribution in rat at 2 mg/kg, iv; type: ADME, organism-based; design: dose 2 mg/kg, route intravenous; conditions: in vivo
[18] = Aqueous solubility of the compound at pH 6.8; type: physicochemical; conditions: aqueous medium
[19] = target: T2, Fatty-acid amide hydrolase 1 (Homo sapiens, UniProt O00519); assay: Inhibition of human FAAH expressed in CHO cells using 7-amino-4-methylcoumarine amide as substrate preincubated for 1 hr by fluorimetry; type: cell-based
T2 sequence (O00519 whole entry): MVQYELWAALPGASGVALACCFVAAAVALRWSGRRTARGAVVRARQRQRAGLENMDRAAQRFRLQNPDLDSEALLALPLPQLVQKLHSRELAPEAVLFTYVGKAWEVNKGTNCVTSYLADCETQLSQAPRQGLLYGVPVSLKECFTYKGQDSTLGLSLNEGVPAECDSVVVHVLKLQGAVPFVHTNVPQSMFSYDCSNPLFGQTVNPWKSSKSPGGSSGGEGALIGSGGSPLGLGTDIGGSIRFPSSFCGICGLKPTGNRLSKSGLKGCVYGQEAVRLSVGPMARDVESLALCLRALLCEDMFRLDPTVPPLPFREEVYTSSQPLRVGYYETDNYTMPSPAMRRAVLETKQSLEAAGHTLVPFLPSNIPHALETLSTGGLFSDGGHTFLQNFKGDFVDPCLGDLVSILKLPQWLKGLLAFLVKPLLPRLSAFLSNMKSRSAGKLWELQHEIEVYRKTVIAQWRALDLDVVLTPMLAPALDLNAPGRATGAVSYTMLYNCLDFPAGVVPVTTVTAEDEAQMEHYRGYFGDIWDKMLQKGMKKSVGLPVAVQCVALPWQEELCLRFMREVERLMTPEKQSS

[20] = tested on: Rattus norvegicus; assay: Inhibition of FAAH in rat assessed as AEA level in brain at 0.3 mg/kg, iv administered 30 mins prior to anandamide loading measured after 30 mins relative to vehicle treated control; type: functional
[21] = target: Cytochrome P450 2D6 (Homo sapiens, UniProt P10635); assay: Inhibition of CYP2D6; type: ADME
[22] = tested on: Rattus norvegicus; assay: Inhibition of FAAH in rat assessed as AEA level in brain at 3 mg/kg, iv administered 30 mins prior to anandamide loading measured after 30 mins relative to vehicle treated control; type: functional
[23] = Aqueous solubility of the compound at pH 1; type: physicochemical; conditions: aqueous medium
[24] = Cmax in rat at 4 mg/kg, po; type: ADME, organism-based; design: dose 4 mg/kg, route oral; conditions: in vivo
[25] = Plasma clearance in rat at 2 mg/kg, iv; type: ADME, organism-based; design: dose 2 mg/kg, route intravenous
[26] = target: Cytochrome P450 2C9 (Homo sapiens, UniProt P11712); assay: Inhibition of CYP2C9; type: ADME
[27] = tested on: Plasma; assay: Plasma concentration in rat at 3 mg/kg, iv; type: ADME, organism-based; design: dose 3 mg/kg, route intravenous; conditions: in vivo
[28] = target: T3, Fatty-acid amide hydrolase 1 (Rattus norvegicus, UniProt P97612); assay: Inhibition of rat FAAH using 7-amino-4-methylcoumarine amide as substrate preincubated for 1 hr by fluorimetry
T3 sequence (P97612 whole entry): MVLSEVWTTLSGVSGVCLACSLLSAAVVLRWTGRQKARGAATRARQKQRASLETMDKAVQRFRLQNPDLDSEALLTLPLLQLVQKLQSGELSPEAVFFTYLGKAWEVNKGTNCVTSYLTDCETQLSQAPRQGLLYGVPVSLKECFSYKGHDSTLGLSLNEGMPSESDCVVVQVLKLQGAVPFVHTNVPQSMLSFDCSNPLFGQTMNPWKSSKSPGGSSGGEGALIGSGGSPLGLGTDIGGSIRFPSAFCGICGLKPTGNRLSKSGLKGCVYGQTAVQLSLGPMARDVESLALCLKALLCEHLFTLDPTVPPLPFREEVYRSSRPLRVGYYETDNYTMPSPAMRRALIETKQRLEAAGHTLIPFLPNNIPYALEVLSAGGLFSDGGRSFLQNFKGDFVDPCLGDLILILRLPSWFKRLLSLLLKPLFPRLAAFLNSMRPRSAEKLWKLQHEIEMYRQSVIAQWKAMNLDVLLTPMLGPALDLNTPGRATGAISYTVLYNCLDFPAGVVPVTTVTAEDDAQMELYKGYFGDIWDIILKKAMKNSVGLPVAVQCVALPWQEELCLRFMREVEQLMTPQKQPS

[29] = Apparent permeability from apical to basolateral side of human Caco2 cells; type: ADME, cell-based; conditions: Caco-2
[30] = target: T4, Cytochrome P450 1A2 (Homo sapiens, UniProt P05177); assay: Inhibition of CYP1A2; type: ADME
T4 sequence (P05177 whole entry): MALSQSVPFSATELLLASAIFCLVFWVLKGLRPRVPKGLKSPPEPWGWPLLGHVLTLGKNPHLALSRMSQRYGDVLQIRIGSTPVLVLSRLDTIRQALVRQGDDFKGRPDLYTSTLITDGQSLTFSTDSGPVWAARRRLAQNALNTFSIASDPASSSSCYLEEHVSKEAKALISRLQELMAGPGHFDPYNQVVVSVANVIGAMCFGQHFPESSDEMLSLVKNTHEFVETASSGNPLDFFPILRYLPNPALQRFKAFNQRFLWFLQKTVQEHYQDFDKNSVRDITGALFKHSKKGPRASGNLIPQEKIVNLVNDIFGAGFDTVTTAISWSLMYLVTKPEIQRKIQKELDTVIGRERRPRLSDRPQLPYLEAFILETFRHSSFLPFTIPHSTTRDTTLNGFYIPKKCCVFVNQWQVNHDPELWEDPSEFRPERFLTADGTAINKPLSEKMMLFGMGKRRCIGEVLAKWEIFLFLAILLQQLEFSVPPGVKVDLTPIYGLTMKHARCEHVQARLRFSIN

Chain of Voltage-gated inwardly rectifying potassium channel KCNH2 (Q12809 whole entry): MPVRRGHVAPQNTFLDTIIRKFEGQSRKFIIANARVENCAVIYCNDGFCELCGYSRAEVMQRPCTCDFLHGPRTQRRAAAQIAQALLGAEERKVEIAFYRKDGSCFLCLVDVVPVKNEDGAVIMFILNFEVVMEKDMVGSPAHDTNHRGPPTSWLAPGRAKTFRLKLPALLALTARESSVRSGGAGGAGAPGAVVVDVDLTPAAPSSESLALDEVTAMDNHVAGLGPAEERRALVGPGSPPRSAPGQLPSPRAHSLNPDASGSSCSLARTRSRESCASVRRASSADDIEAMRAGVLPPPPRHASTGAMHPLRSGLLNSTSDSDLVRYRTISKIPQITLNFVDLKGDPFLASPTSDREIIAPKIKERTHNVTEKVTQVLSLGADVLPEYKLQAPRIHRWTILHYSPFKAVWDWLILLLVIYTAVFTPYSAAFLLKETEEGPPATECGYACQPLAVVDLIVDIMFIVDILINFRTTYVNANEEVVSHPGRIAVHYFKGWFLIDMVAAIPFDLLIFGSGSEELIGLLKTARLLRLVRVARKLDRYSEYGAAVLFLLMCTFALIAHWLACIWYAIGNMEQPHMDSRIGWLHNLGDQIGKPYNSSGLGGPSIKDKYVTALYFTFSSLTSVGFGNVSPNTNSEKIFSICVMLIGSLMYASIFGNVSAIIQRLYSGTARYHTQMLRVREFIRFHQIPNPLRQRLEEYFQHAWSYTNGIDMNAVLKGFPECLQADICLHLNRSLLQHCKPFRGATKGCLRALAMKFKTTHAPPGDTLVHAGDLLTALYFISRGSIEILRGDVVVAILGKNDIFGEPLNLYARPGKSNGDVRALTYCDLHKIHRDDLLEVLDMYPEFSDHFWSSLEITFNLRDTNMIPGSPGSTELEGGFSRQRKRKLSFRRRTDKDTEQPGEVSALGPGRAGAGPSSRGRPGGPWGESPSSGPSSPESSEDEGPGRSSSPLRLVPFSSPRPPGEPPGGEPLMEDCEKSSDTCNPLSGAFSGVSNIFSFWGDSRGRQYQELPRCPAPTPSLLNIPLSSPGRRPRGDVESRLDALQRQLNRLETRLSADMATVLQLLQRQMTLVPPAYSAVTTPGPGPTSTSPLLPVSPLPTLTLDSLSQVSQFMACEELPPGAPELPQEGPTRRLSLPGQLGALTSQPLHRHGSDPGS
Chain of Cytochrome P450 3A4 (P08684 whole entry): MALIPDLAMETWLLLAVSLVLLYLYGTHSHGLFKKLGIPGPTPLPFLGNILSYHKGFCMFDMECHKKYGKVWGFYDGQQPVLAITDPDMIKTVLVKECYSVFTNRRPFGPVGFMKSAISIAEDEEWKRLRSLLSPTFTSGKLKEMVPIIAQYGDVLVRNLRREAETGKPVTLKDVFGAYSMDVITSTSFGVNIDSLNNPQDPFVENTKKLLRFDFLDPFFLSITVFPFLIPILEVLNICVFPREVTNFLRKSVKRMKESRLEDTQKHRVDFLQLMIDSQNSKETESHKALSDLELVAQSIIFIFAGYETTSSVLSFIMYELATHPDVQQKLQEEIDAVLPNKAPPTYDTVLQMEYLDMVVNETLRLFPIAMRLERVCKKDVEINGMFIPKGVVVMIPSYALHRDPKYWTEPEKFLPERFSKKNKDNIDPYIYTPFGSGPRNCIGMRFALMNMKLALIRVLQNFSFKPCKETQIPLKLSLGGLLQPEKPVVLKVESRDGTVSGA
Chain of Cytochrome P450 2C9 (P11712 whole entry): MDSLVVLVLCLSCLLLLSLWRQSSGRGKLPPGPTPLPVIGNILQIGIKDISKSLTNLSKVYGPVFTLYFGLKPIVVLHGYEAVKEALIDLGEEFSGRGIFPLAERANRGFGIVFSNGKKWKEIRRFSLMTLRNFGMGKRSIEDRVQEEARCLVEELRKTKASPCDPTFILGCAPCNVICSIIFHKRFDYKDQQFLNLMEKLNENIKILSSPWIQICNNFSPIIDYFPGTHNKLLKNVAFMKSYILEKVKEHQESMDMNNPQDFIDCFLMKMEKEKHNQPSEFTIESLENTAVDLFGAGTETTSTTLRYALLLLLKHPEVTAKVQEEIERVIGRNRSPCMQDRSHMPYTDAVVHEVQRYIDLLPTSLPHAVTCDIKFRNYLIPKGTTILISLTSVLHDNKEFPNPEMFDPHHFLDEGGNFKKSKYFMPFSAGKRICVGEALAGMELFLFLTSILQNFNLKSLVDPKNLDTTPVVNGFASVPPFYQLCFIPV
Chain of Cytochrome P450 2D6 (P10635 whole entry): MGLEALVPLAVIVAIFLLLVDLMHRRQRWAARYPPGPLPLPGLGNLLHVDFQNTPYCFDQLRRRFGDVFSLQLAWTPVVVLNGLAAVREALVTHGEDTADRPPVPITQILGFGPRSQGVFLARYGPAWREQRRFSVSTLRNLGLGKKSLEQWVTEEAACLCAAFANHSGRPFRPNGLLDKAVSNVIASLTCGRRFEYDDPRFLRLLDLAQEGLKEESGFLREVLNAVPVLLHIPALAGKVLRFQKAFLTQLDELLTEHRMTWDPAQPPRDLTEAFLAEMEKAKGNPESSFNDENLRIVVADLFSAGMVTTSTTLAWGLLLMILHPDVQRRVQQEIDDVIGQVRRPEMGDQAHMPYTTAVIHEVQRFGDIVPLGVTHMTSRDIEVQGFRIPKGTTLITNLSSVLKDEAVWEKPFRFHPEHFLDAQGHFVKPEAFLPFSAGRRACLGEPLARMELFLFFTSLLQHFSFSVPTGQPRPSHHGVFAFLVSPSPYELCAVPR
Chain of Cytochrome P450 2C19 (P33261 whole entry): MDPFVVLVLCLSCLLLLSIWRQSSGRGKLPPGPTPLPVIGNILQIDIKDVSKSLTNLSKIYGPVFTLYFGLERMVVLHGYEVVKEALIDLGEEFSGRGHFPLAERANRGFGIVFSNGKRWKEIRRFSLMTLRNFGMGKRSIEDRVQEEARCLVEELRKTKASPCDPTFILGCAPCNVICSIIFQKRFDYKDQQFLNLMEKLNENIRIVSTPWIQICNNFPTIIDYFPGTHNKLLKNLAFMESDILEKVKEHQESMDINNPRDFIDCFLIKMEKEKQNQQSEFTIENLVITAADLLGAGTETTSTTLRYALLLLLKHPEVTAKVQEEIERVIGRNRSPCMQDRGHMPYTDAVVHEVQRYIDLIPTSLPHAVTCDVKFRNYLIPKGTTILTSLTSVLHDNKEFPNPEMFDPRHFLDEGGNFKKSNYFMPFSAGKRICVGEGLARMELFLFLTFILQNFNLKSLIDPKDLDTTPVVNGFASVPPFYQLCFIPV

With `O=C(N1CCCCC1)N1CC(O[C@@H](c2ccc(Cl)cc2)c2cccnc2Cl)C1` the IC50 [1] was 30.8 µM, the Drug uptake [2] was 137 ng/g and the IC50 [3] was 2.05 µM. For the same compound, the bioavailability [4] was 2.4%, the inhibition [5] was “Dose-dependent effect” and the metabolised at 10 min [6] was 92%. The Ratio [7] was 17, the IC50 [8] was greater than 10 µM and the metabolised at 10 min [9] was 98%. For the same compound, the IC50 [10] was 22.3 µM, the Drug uptake [11] was 79 ng/g and the Drug uptake [12] was 18 ng/g. It also gave a Cp [13] of 72 ng/g, a Papp B→A [14] of 27.5 ×10⁻⁶ cm/s and a Cp [15] of 8.5 ng/g. For the same compound, the “fold change (FC)” value [16] was 3.3, the Vd [17] was 3.3 L/kg and the solubility [18] was 175 µM (≈ 73.6 µg/mL). For the same compound, the IC50 [19] was 0.973 µM, the “fold change (FC)” value [20] was 1.7 and the IC50 [21] was greater than 10 µM. The “fold change (FC)” value [22] was 5.1, the solubility [23] was 158 µM (≈ 66.4 µg/mL) and the Cmax [24] was 5 ng/mL. It also gave a clearance [25] of 47 mL/min/kg, an IC50 [26] greater than 10 µM and a Cp [27] of 109 ng/g. The IC50 [28] was 0.112 µM, the Papp A→B [29] was 31.7 ×10⁻⁶ cm/s and the IC50 [30] was greater than 10 µM.
